Patent US20240360177A1, “PEPTIDES WITH ANTIMICROBIAL ACTIVITIES” (priority 2021, published 2024)
Converted amounts (≈) assume the structure as drawn. Read-outs that look alike come from different tables or passages of the source. Starred links: 1 amine or outer side, 2 acyl side, 3 side chain; linkers in the order of their positions; H or OH if unused. Non-standard residues stand in square brackets, D forms with d. Residues, ends and D or L forms follow the SMILES beside them. NH(CH2)9CO = O=C(CCCCCCCCCN[*:1])[*:2]; Aoc = NCCCCCCCC(=O)O; βAla = NCCC(=O)O

Assays:
Scedosporium spp. = settings: 72 h
C. dubliniensis = settings: 24 h
Fusarium spp. = settings: 48 h
C. neoformans = settings: 72 h
Endoproteinase Arg-C = biological target: T1, Endoproteinase Arg-C (Hathewaya histolytica, UniProt P09870); assay: Endoproteinase Arg-C digestion stability; type: in vitro ADME; settings: 37° C.
T1 construct: purchased Sigma Aldrich 11370529001
T1 sequence (P09870 51-181): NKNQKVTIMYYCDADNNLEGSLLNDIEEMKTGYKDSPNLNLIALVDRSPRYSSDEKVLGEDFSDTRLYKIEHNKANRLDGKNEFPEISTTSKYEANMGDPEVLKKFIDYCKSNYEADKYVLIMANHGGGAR
T1 sequence (P09870 191-526): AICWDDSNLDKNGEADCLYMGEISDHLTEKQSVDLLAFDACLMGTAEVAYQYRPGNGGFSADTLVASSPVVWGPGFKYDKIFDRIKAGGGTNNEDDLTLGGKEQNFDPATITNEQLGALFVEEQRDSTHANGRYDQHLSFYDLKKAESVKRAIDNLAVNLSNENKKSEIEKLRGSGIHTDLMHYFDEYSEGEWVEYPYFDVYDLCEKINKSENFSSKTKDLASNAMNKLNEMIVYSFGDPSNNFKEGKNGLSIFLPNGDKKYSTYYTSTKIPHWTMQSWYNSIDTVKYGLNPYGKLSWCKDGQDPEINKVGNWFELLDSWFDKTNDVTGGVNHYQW

Paecilomyces variotii = settings: 48 h
C. parapsilosis = settings: 24 h
[1] = Subacute toxicity in CD-1 mice; type: in vivo; settings: daily IP for 7 days
Protocol: In the subacute toxicity study, groups of CD-1 male or female mice were administered seven consecutive daily intraperitoneal doses (n=3 per dose) of the peptides (SEQ ID NO: 7, SEQ ID NO: 29, SEQ ID NO: 53) dissolved in normal saline for injection. Each peptide was evaluated at 2 to 3 dose levels ranging from 2.5 to 7.5 mg/kg/day. Mice were weighed at least once daily and observed at least twice daily for any abnormal findings and determination of overall health. At 24 hrs after the last dose, mice were humanely euthanized, with blood collected through cardiac puncture into K2EDTA microtainers to assess hematological parameters. All three peptides were tolerated at the highest dose evaluated (7.5 mg/kg/day) for 7 days.

C. tropicalis = settings: 24 h
C. albicans = settings: 24 h
in vitro [2] = settings: human, human serum, full strength
in vitro [3] = settings: human, EC50 cytotoxicity in HepG2, intracellular ATP assay
[4] = Plasma pharmacokinetics after single IV or IP dose in mice; type: in vivo, CD-1 mice
Protocol: The in vitro enzymatic and serum stability of the peptides is manifested by the in vivo plasma pharmacokinetic (PK) profile. A single 5 mg/kg intravenous injection (via tail vein) and a single 7.5 mg/kg intraperitoneal dose of SEQ ID NO: 7 were administered to 2 groups of CD-1 mice (n=3 per group). […] Serial blood samples were collected from the saphenous vein into EDTA-K2 as anti-coagulant at time points up to 4 hrs or 8 hrs after the intravenous or intraperitoneal doses. Plasma was separated and analyzed by an LC-MS/MS method as follows. Due to the small blood volume collected from each mouse, the plasma was pooled from 3 mice before analysis. A 50 μL of plasma was protein precipitated with a 100 μL solution of 300 ng/mL TAT peptide ([…]; SEQ ID NO: 99) as the internal standard in 5% trichloroacetic acid. After centrifugation, an aliquot of the supernatant was injected onto an HPLC column (Waters ACQUITY UPLC HSS T3, 2.1*50 mm, 1.8 μm) eluted with a gradient of mobile phase containing 0.1% perfluoropentanoic acid (PFPA) in water and 0.1% PFPA in acetonitrile. The peptide and the internal standard were detected using a Triple Quad 6500+ mass spectrometer operated with electro-spray ionization in the positive-ion SRM mode. The calibration curve range was from 10 to 4000 ng/mL. The mean plasma concentration of SEQ ID NO: 7 after the single intravenous and intraperitoneal doses are depicted in FIG. 2.
C0 or Cmax is concentration at time of injection for IV dose, or maximal concentration after IP dose; tmax is the time when C0 or Cmax was observed; t1/2 is plasma half-life; AUC is area under the plasma concentration vs. time curve; F is absolute bioavailability.

C. auris = settings: 24 h
C. gattii = settings: 72 h
C. krusei = settings: 24 h
Rhizopus arrhizus = settings: 24 h
C. glabrata = settings: 24 h
[5] = Acute toxicity in CD-1 mice; settings: both sexes, mouse, in vivo
Protocol: Acute toxicity and subacute toxicity of ACPs were tested in CD-1 mice. In the acute toxicity study, groups of CD-1 male or female mice were administered single intravenous or intraperitoneal escalating doses (n=2-3 per dose) of the peptides dissolved in normal saline for injection or in phosphate buffered saline. The intravenous dose was administered via tail vein with a slow push over 15-20 seconds. Doses were escalated based on tolerability.

Coccidioides species = settings: N = 3 strains; 48-72 hrs; >50% inhibition
[6] = system: Microsporum gypseum ATCC 14683
[7] = system: Mycobacterium fortuitum ATCC 110; assay: Antibacterial broth microdilution MIC, Mycobacterium fortuitum; type: cell-based; settings: 48 hrs
[8] = system: Shigella sonnei MMX 10772; assay: Antibacterial broth microdilution MIC, Shigella sonnei; type: cell-based; settings: CAMHB
[9] = system: Mycobacterium smegmatis ATCC 700084; type: cell-based; settings: ATCC 700084, 48 h
[10] = system: Epidermophyton floccosum ATCC 52066
[11] = system: Escherichia coli ATCC 25922; type: cell-based
[12] = system: Trichophyton rubrum ATCC MYA-4438
[13] = system: Staphylococcus aureus ATCC 29213; type: cell-based
[14] = system: Klebsiella pneumoniae ATCC 13883; type: cell-based
[15] = system: Pseudomonas aeruginosa ATCC 27853; type: cell-based
[16] = system: Salmonella senftenberg CDC 127; type: cell-based
[17] = CD-1, mouse, IP 7.5 mg/kg, plasma
[18] = CD-1, mouse, IV 5 mg/kg, plasma
[19] = single IP dose, read-out: Tolerated single intraperitoneal dose
[20] = single IV dose via tail vein, read-out: Tolerated single intravenous dose

With `N=C(N)NCCC[C@@H](N)C(=O)N[C@@H](CCCNC(=N)N)C(=O)N[C@H](CCCNC(=N)N)C(=O)NCCC(=O)N[C@H](CCCNC(=N)N)C(=O)N[C@@H](CCCNC(=N)N)C(=O)N[C@H](CCCNC(=N)N)C(=O)NCCC(=O)N[C@H](CCCNC(=N)N)C(=O)N[C@@H](CCCNC(=N)N)C(=O)N[C@H](CCCNC(=N)N)C(=O)N[C@@H](CCCNC(=N)N)C(=O)NCCC(=O)N[C@H](CCCNC(=N)N)C(=O)N[C@@H](CCCNC(=N)N)C(=O)N[C@H](CCCNC(=N)N)C(=O)N[C@@H](CCCNC(=N)N)C(N)=O` [SEQ ID NO: 7, rRr-(Apr)-rRr-(Apr)-rRrR-(Apr)-rRrR-NH2] (H-[dR]R[dR][βAla][dR]R[dR][βAla][dR]R[dR]R[βAla][dR]R[dR]R-NH2) the “MIC50 Candida species” value (Candida spp.) was 0.5 mg/L (≈ 0.207 µM), the “MIC90 Candida species” value (Candida spp.) was 1 mg/L (≈ 0.414 µM) and the “MIC Range Lomentospora prolificans” value (Lomentospora prolificans) was ≤0.12 mg/L. The “MIC Range Scedosporium spp.” value (Scedosporium spp.) was ≤0.12 mg/L, the “MIC C. dubliniensis” value (C. dubliniensis) was 0.25 mg/L (≈ 0.103 µM) and the “MIC Range Fusarium spp.” value (Fusarium spp.) was 0.12 to 0.5 mg/L. The “MIC C. neoformans” value (C. neoformans) was 0.25 mg/L (≈ 0.103 µM), the half-life at 427 μg/mL (Endoproteinase Arg-C; Endoproteinase Arg-C (isolated enzyme), read-out: Degradation half-life with Endoproteinase Arg-C (converted)) was ~6 h and the remaining at 6 h, 427 μg/mL (Endoproteinase Arg-C; Endoproteinase Arg-C, peptide 427 μg/mL, enzyme 3 μg/mL, 6 hrs, read-out: Percent peptide remaining after incubation with Endoproteinase Arg-C) was 50.5%. The “MIC Range Paecilomyces variotii” value (Paecilomyces variotii) was 0.25 mg/L (≈ 0.103 µM), the “MIC C. parapsilosis” value (C. parapsilosis) was 0.12 mg/L (≈ 0.0497 µM) and the “Tolerated dose (highest dose evaluated)” value [1] was 7.5 mg/kg/day. For the same compound, the “Clinical or hematological adverse effects” value ([1]; up to 7.5 mg/kg/day) was “No significant clinical or hematological adverse effects were observed”, the “MIC C. tropicalis” value (C. tropicalis) was 0.25 mg/L (≈ 0.103 µM) and the “MIC C. albicans” value (C. albicans) was 0.5 mg/L (≈ 0.207 µM). The remaining at 2 h, 5 μM (in vitro [2]) was ~100%, the EC50 (in vitro [3]) was > 300 mg/L and the AUC [4, 17] was 4.74 µg·h/mL. The Cmax [4, 17] was 1.75 µg/mL, the Tmax [4, 17] was 1 h and the half-life [4, 17] was 1.69 h. For the same compound, the AUC [4, 18] was 4.42 µg·h/mL, the C0 [4, 18] was 4.48 µg/mL and the Tmax [4, 18] was 0 h. The half-life [4, 18] was 1.43 h, the bioavailability ([4]; CD-1, mouse, plasma, IP 7.5 mg/kg, read-out: F (absolute bioavailability)) was 74.8% and the “Tolerability of the PK doses” value ([4]; single 5 mg/kg IV and single 7.5 mg/kg IP) was “well tolerated”. The “MIC C. auris” value (C. auris) was 1 mg/L (≈ 0.414 µM), the “MIC C. gattii” value (C. gattii) was 0.25 mg/L (≈ 0.103 µM) and the “MIC C. krusei” value (C. krusei) was 0.5 mg/L (≈ 0.207 µM). The “MIC Range Rhizopus arrhizus” value (Rhizopus arrhizus) was 1 to 8 mg/L, the “MIC C. glabrata” value (C. glabrata) was 0.5 mg/L (≈ 0.207 µM) and the MTD [5, 19] was 10 to 15 mg/kg. The MTD [5, 20] was 5 to 7.5 mg/kg and the “MIC Range Coccidioides species” value (Coccidioides species) was 0.25 to 0.5 mg/L.

With `N=C(N)NCCC[C@@H](N)C(=O)N[C@@H](CCCNC(=N)N)C(=O)N[C@H](CCCNC(=N)N)C(=O)NCCCCCCCCCC(=O)N[C@H](CCCNC(=N)N)C(=O)N[C@@H](CCCNC(=N)N)C(=O)N[C@H](CCCNC(=N)N)C(=O)NCCCCCCCC(=O)N[C@H](CCCNC(=N)N)C(=O)N[C@@H](CCCNC(=N)N)C(=O)N[C@H](CCCNC(=N)N)C(=O)N[C@@H](CCCNC(=N)N)C(=O)NCCCCCCCC(=O)N[C@H](CCCNC(=N)N)C(=O)N[C@@H](CCCNC(=N)N)C(=O)N[C@H](CCCNC(=N)N)C(=O)N[C@@H](CCCNC(=N)N)C(=O)O` [SEQ ID NO: 32, rRr-(Ada)-rRr-(Aoa)-rRrR-(Aoa)-rRrR] (H-[dR]R[dR][NH(CH2)9CO][dR]R[dR][Aoc][dR]R[dR]R[Aoc][dR]R[dR]R-OH) the “MIC Microsporum gypseum” value [6] was >64 mg/L, the “MIC Mycobacterium fortuitum” value [7] was 2 mg/L (≈ 0.753 µM) and the “MIC Shigella sonnei” value [8] was 4 mg/L (≈ 1.51 µM). The “MIC Range Lomentospora prolificans” value (Lomentospora prolificans) was 0.25 mg/L (≈ 0.0941 µM), the “MIC Range Scedosporium spp.” value (Scedosporium spp.) was ≤0.12 mg/L and the “MIC C. dubliniensis” value (C. dubliniensis) was 1 mg/L (≈ 0.376 µM). The “MIC Range Fusarium spp.” value (Fusarium spp.) was 0.25 to 1 mg/L, the “MIC C. neoformans” value (C. neoformans) was 0.25 mg/L (≈ 0.0941 µM) and the “MIC Mycobacterium smegmatis” value [9] was 0.5 mg/L (≈ 0.188 µM). For the same compound, the “MIC Epidermophyton floccosum” value [10] was 4 mg/L (≈ 1.51 µM), the “MIC Range Paecilomyces variotii” value (Paecilomyces variotii) was 0.25 mg/L (≈ 0.0941 µM) and the “MIC Escherichia coli” value [11] was 2 mg/L (≈ 0.753 µM). The “MIC C. parapsilosis” value (C. parapsilosis) was 0.25 mg/L (≈ 0.0941 µM), the “MIC Trichophyton rubrum” value [12] was 8 mg/L (≈ 3.01 µM) and the “MIC Staphylococcus aureus” value [13] was 8 mg/L (≈ 3.01 µM). For the same compound, the “MIC C. tropicalis” value (C. tropicalis) was 0.5 mg/L (≈ 0.188 µM), the “MIC C. albicans” value (C. albicans) was 1 mg/L (≈ 0.376 µM) and the “MIC Klebsiella pneumoniae” value [14] was 4 mg/L (≈ 1.51 µM). The EC50 (in vitro [3]) was > 300 mg/L, the “MIC Pseudomonas aeruginosa” value [15] was 16 mg/L (≈ 6.02 µM) and the “MIC C. auris” value (C. auris) was 4 mg/L (≈ 1.51 µM). The “MIC C. gattii” value (C. gattii) was 0.25 mg/L (≈ 0.0941 µM), the “MIC C. krusei” value (C. krusei) was 0.5 mg/L (≈ 0.188 µM) and the “MIC Range Rhizopus arrhizus” value (Rhizopus arrhizus) was 0.5 to 8 mg/L. For the same compound, the “MIC C. glabrata” value (C. glabrata) was 0.5 mg/L (≈ 0.188 µM), the MTD [5, 19] was 10 to 15 mg/kg and the MTD [5, 20] was 5 to 7.5 mg/kg. For the same compound, the “MIC Range Coccidioides species” value (Coccidioides species) was 0.25 to 0.5 mg/L and the “MIC Salmonella senftenberg” value [16] was 4 mg/L (≈ 1.51 µM).
